Like-named read-outs stand apart in the source and are kept apart here.
Test system: HIV-1 (H9IIIB strain)
Assay: Cell-based HIV infection assay using a reporter (Cell-Based), MT4-GFP cells
Conditions: 50% normal human serum, mean of at least two independent experiments, read-out: Cell-based IP
Description: Cell-Based HIV Infection Assay Using a Reporter (“Cell-Based”):
MT4-GFP cells contain a stably integrated HIV long terminal repeat promoter directing the transcription of green fluorescent protein (GFP). When HIV infects the cell, GFP is produced and the cell becomes green. MT4-GFP cells (250,000 cells/ml) were bulk-infected with HIV-1 (H9IIIB strain) at low multiplicity of infection (MOI) in RPMI media, supplemented with 10% FBS for 24 hours. Cells were then washed once in RPMI plus 10% FBS and resuspended in RPMI plus 50% normal human serum (NHS). Test compounds were serial-diluted in DMSO using an ECHO liquid dispenser. A control well included a combination of three HIV drugs (an inhibitor of HIV protease, integrase strand transfer and a non-nucleoside reverse transcriptase inhibitor; triple drug). The infected MT4-GFP cells were added to a 384-well poly-D-lysine coated black plate with clear bottom in which the diluted test compounds were placed. The cells were seeded in the plate at 8,000 cells per well and the final DMSO concentration was 0.4%. Infected cells were quantified at both 24 and 48 hours post incubation using an Acumen eX3 plate reader. Viral reproductive ratio (R0) was determined using the number of infected cells at 48 hours divided by the number of infected cells at 24 hours. Percent viral growth inhibition was calculated by [1−(R−Rtripledrug)/(RDMSO−Rtripledrug)]*100. Compound potency IP or IC50 was determined with use of a 4-parameter dose response curve analysis.

[1] = MT4-GFP cells infected with HIV-1 H9IIIB
[2] = Human immunodeficiency virus 1, MT4-GFP cells infected with HIV-1 H9IIIB

| Structure (SMILES) | IC50 [1] [nM] | IC50 [2] [nM] |
| --- | --- | --- |
| COC(=O)NC(C(=O)NC1CC1CC[C@H]1CNCCN1S(=O)(=O)c1ccccc1)C(c1ccc(F)cc1)c1ccc(F)cc1 (single isomer, unassigned) [Example 362] | 76 | – |
| COC(=O)NC(C(=O)NC1CC1CC[C@H]1CNCCN1S(=O)(=O)c1ccccc1)C(c1ccc(F)cc1)c1ccc(F)cc1 (single isomer, unassigned) [Example 363] | 370 | – |
| O=C(Nc1cccc(F)c1CC[C@H]1CNCCN1S(=O)(=O)c1ccccc1)[C@@H](O)C(c1ccccc1)c1ccccc1 (single isomer, unassigned) [Example 364] | – | 34 |
| O=C(Nc1cccc(F)c1CC[C@H]1CNCCN1S(=O)(=O)c1ccccc1)[C@H](O)C(c1ccccc1)c1ccccc1 (single isomer, unassigned) [Example 365] | – | 68 |
| COc1ccc([C@H](c2ccc(Cl)cc2)[C@H](N)C(=O)Nc2cccc(F)c2CC[C@H]2CNCC(C)N2S(=O)(=O)C2CC2)cn1 (stereo in doubt) [Example 152, (βS)-4-chloro-N-(2-{2-[(2S,6S)-1-(cyclopropylsulfonyl)-6-methylpiperazin-2-yl]ethyl}-3-fluorophenyl)-β-(6-methoxypyridin-3-yl)-L-phenylalaninamide] | – | 39 |
| COC(=O)NC(C(=O)NC1CC(F)(F)CC1CC[C@H]1CNCCN1S(=O)(=O)c1ccccc1)C(c1ccc(F)cc1)c1ccc(F)cc1 (stereo in doubt) [Example 358, Methyl ((2R)-1-((4,4-difluoro-2-(2-((S)-1-(phenylsulfonyl)piperazin-2-yl)ethyl)cyclopentyl)amino)-3,3-bis(4-fluorophenyl)-1-oxopropan-2-yl)carbamate] | 160 | – |
| COC(=O)NC(C(=O)NC1CC(F)(F)CC1CC[C@H]1CNCCN1S(=O)(=O)c1ccccc1)C(c1ccc(F)cc1)c1ccc(F)cc1 (stereo in doubt) [Example 359, Methyl ((2R)-1-((4,4-difluoro-2-(2-((S)-1-(phenylsulfonyl)piperazin-2-yl)ethyl)cyclopentyl)amino)-3,3-bis(4-fluorophenyl)-1-oxopropan-2-yl)carbamate] | 530 | – |
| N[C@H](C(=O)Nc1cncc(F)c1CC[C@H]1CNCCN1S(=O)(=O)c1ccccc1)C(c1cccc(F)c1)c1cccc(F)c1 [Example 4, (S)-2-Amino-N-(5-fluoro-4-(2-((S)-1-(phenylsulfonyl)piperazin-2-yl)ethyl)pyridine-3-yl)-3,3-bis(3-fluorophenyl)propanamide] | – | 4.3 |
| COC(=O)N[C@H](C(=O)Nc1cccc(F)c1CC[C@H]1CNCCN1S(=O)(=O)c1ccccc1)[C@@H](c1ccc(Cl)cc1)c1ccc(OC)nc1 [Example 5, Methyl ((1S,2S)-1-(4-chlorophenyl)-3-((3-fluoro-2-(2((S)-1-(phenylsulfonyl)piperizin-2-yl)ethyl)phenyl)amino)-1-(6-methoxypyridin-3-yl)-3-oxopropan-2-yl)carbamate] | – | 5.9 |
| N[C@H](C(=O)Nc1cccc(F)c1CC[C@H]1CNCCN1S(=O)(=O)c1ccccc1)[C@@H](c1ccc(Cl)cc1)c1cncc(C(F)(F)F)c1 [Example 6, (2S,3S)-2-amino-3-(4-chlorophenyl)-N-(3-fluoro-2-(2-((S)-1-(phenylsulfonyl)piperazin-2-yl)ethyl)phenyl)-3-(5-(trifluoromethyl)pyridine-3-yl)propanamide] | – | 7.8 |
| COC(=O)N[C@H](C(=O)Nc1cccc(F)c1CC[C@H]1CNC[C@H](C)N1S(=O)(=O)c1ccccc1)[C@@H](c1ccc(F)cc1)C1CCOCC1 [Example 7, Methyl ((2S,3R)-1-((3-fluoro-2-(2-((2S,6S)-6-methyl-1-(phenylsulfonyl)piperazin-2-yl)ethyl)phenyl)amino)-3-(4-fluorophenyl)-1-oxo-3-(tetrahydro-2H-pyran-4-yl)propan-2-yl)carbamate] | – | 6 |
| COC(=O)N[C@H](C(=O)Nc1cncc(F)c1CC[C@H]1CNC[C@H](C)N1S(=O)(=O)c1ccccc1)[C@@H](c1ccc(Cl)cc1)C(C)C [Example 8, Methyl ((2S,3R)-3-(4-chlorophenyl)-1-((5-fluoro-4-(2-((2S,6S)-6-methyl-1-(phenylsulfonyl)piperzin-2-yl)ethyl)pyridin-3-yl)amino)-4-methyl-1-oxopentan-2-yl)carbamate] | – | 9.8 |
| COc1ccc(S(=O)(=O)N2[C@@H](CCc3c(F)cncc3NC(=O)[C@@H](N)[C@@H](c3ccc(Cl)cc3)C3CCOCC3)CNC[C@@H]2C)cc1 [Example 9, (2S,3R)-2-Amino-3-(4-chlorophenyl)-N-(5-fluoro-4-(2-((2S,6S)-1-((4-methoxyphenyl)sulfonyl)-6-methylpiperazin-2-yl)ethyl)pyridin-3-yl)-3-(tetrahydro-2H-pyran-4-yl)propanamide] | – | 7.1 |
| C[C@H]1CNC[C@H](CCc2c(F)cccc2NC(=O)[C@@H](N)C(c2cccc(F)c2)c2cccc(F)c2)N1S(=O)(=O)c1ccccc1 [Example 10, (S)-2-Amino-N-(3-fluoro-2-(2-((2S,6S)-6-methyl-1-(phenylsulfonyl)piperazin-2-yl)ethyl)phenyl)-3,3-bis(3-fluorophenyl)propanamide] | – | 11 |
| COC(=O)N[C@H](C(=O)Nc1cncc(F)c1CC[C@H]1CNC[C@H](C)N1S(=O)(=O)C1CC1)[C@@H](c1ccc(Cl)cc1)c1cccc(F)c1 [Example 11, Methyl ((1S,2S)-1-(4-chlorophenyl)-3-((4-(2-((2S,6S)-1-(cyclopropylsulfonyl)-6-methylpiperazin-2-yl)ethyl)-5-fluoropyridin-3-yl)amino)-1-(3-fluorophenyl)-3-oxopropan-2-yl)carbamate] | – | 11 |
| COC(=O)N[C@H](C(=O)Nc1cccc(F)c1CC[C@H]1CNC[C@H](C)N1S(=O)(=O)C1CC1)[C@@H](c1ccc(Cl)cc1)C1CCOCC1 [Example 12, Methyl (1R,2S)-1-(4-chlorophenyl)-3-(2-(2-((2S,6S)-1-(cyclopropylsulfonyl)-6-methylpiperazin-2-yl)ethyl)-3-fluorophenylamino)-3-oxo-1-(tetrahydro-2H-pyran-4-yl)propan-2-ylcarbamate] | – | 18 |
| C[C@@H]1CNC[C@H](CCc2c(F)cncc2NC(=O)[C@@H](N)[C@@H](c2ccc(F)cc2)c2cc(F)cc(F)c2)N1S(=O)(=O)c1ccccc1 [Example 13, (βS)-β-(3,5-difluorophenyl)-4-fluoro-N-(5-fluoro-4-{2-[(2S,6R)-6-methyl-1-(phenylsulfonyl)piperazin-2-yl]ethyl}pyridin-3-yl)-L-phenylalaninamide] | – | 20 |
| COc1ccc([C@H](c2ccc(Cl)cc2)[C@H](N)C(=O)Nc2cccc(F)c2CC[C@H]2CNC[C@@H](C)N2S(=O)(=O)c2ccccc2)cn1 [Example 14, (βS)-4-chloro-N-(3-fluoro-2-{2-[(2S,6R)-6-methyl-1-(phenylsulfonyl)piperazin-2-yl]ethyl}phenyl)-β-(6-methoxypyridin-3-yl)-L-phenylalaninamide] | – | 18 |
| C[C@@H]1CNC[C@H](CCc2c(F)cncc2NC(=O)[C@@H](N)[C@@H](c2ccc(F)cc2)c2cc(F)cc(F)c2)N1S(=O)(=O)C1CC1 [Example 15, (βS)—N-(4-{2-[(2S,6R)-1-(cyclopropylsulfonyl)-6-methylpiperazin-2-yl]ethyl}-5-fluoropyridin-3-yl)-β-(3,5-difluorophenyl)-4-fluoro-L-phenylalaninamide] | – | 18 |
| COc1ccc(S(=O)(=O)N2[C@@H](CCc3c(F)cccc3NC(=O)[C@@H](N)[C@@H](c3ccc(F)cc3)c3cc(F)cc(F)c3)CNC[C@H]2C)cc1 [Example 16, (βS)-β-(3,5-difluorophenyl)-4-fluoro-N-[3-fluoro-2-(2-{(2S,6R)-1-[(4-methoxyphenyl)sulfonyl]-6-methylpiperazin-2-yl}ethyl)phenyl]-L-phenylalaninamide] | – | 5.4 |
| COC(=O)N[C@H](C(=O)Nc1cncc(F)c1CC[C@H]1CNC[C@@H](C)N1S(=O)(=O)c1ccccc1)[C@@H](c1ccc(Cl)cc1)C(C)C [Example 17, (βR)-4-chloro-N-(5-fluoro-4-{2-[(2S,6R)-6-methyl-1-(phenylsulfonyl)piperazin-2-yl]ethyl}pyridin-3-yl)-Nα-(methoxycarbonyl)-β-(1-methylethyl)-L-phenylalaninamide] | – | 4.4 |
| COC(=O)N[C@H](C(=O)Nc1cccc(F)c1CC[C@H]1CNC[C@@H](C)N1S(=O)(=O)c1ccc(F)cc1)[C@@H](c1ccc(Cl)cc1)C1CCOCC1 [Example 18, Methyl ((1R,2S)-1-(4-chlorophenyl)-3-((3-fluoro-2-(2-((2S,6R)-1-((4-fluorophenyl)sulfonyl)-6-methylpiperazin-2-yl)ethyl)phenyl)amino)-3-oxo-1-(tetrahydro-2H-pyran-4-yl)propan-2-yl)carbamate] | – | 8.6 |
| COC(=O)N[C@H](C(=O)Nc1cccc(F)c1CC[C@H]1CNCC2(CC2)CN1S(=O)(=O)c1ccccc1)[C@@H](c1ccc(Cl)cc1)c1ccc(OC)nc1 [Example 19, Methyl ((1S,2S)-1-(4-chlorophenyl)-3-((3-fluoro-2-(2-((S)-5-phenylsulfonyl)-5,8-diazaspiro[2.6]nonan-6-yl)ethyl)phenylamino)-1-(6-methoxypyridin-3-yl)-3-oxopropan-2-yl)carbamate 2,2,2-trifluoroacetate] | – | 16 |
